Like-named read-outs stand apart in the source and are kept apart here.
Assays:
AaDOP2 [1] = biological target: T1, AaDOP2 (Aedes aegypti, UniProt H6D5H2); assay: AaDOP2 agonist screen against the LOPAC1280 library; type: cell-based; conditions: 10 μM compound; percent of response to 1 μM dihydrexidine
Ae. aegypti L3 larvae [2] = assay: whole plant or invertebrate; conditions: Aedes aegypti
AaDOP2 [3] = biological target: T1, AaDOP2; assay: HTRF cAMP accumulation concentration response assay (Cisbio Dynamic 2); type: cell-based; conditions: AaDOP2 expressing cells in the presence of dopamine; No Inhibition = <10% inhibition at 3 μM test compound; read-out: IC50 ± S.E.M. (nM), HTRF cAMP assay
AaDOP2 [4] = biological target: T1, AaDOP2; assay: LOPAC1280 antagonist screen in HEK-CRELuc-Aadop2 cells; type: cell-based; conditions: for % of the SCH23390 effect: 10 μM compound, 300 nM dopamine, quadruplicate; for % inhibition of DA activity (Aedes cell-based assay screen): LOPAC1280 screen hits
Isdop2 = Isdop2 (Ixodes scapularis, UniProt A0ACM8DGL0); assay: cell-based; conditions: read-out: % Inhibition (of response to dopamine), Isdop2 screen
Chain of Isdop2 (A0ACM8DGL0 entry or part of it): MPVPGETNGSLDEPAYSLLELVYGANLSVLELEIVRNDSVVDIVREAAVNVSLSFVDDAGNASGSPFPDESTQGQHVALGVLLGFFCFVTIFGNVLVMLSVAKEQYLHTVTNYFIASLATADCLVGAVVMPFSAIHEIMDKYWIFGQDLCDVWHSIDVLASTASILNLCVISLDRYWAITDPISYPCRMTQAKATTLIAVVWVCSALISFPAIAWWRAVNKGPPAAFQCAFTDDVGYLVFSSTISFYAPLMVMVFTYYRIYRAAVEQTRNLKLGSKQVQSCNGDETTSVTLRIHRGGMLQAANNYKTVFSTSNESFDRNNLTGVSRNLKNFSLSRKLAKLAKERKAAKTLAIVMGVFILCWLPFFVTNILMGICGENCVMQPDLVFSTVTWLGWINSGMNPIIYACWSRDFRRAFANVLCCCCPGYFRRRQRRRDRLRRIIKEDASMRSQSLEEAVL

Ae. aegypti L3 larvae [5] = conditions: 400 μM, three independent experiments
[6] = system: adult male Blatella germanica; assay: Cockroach contact assay (topical application); type: in vivo; conditions: 200 mM compound
From the text: (§1) A series of whole organism bioassays was developed to further evaluate the toxicity of chemistries to a range of agricultural, veterinary and public health pests and non-target insects (Tables 12 and 13). These assays are designed to rapidly explore the biological activity spectrum of chemistries as well as to facilitate initial investigations of the mode of action of insecticidal compounds. Briefly, assays were developed for the German cockroach (Blatella germanica, urban pest), termite (Reticulitermes flavipes; urban pest), lone star tick (Amblyomma americana; veterinary and public health pest), soybean aphid (Aphis glycines, agricultural pest) and honeybee (Apis mellifera; beneficial, non-target insect). The assays were designed to test the toxicity and speed of kill of multiple chemistries on contact. Each of these assays was performed as a single point dose experiment in triplicate using either topical application of compound to the ventral thorax ([…]; 50-80 μg effective dose depending on compound) as is the case for our cockroach and honeybee assays, or 10 second immersion in a solution of the compound diluted in water or DMSO:EtOH to a final concentration of 100 μM. The assays were conducted in 24-well plate format with mortality assessment following incubation at 22° C. as described above. Commercial insecticides were incorporated in these assays to provide a positive control and permit initial comparative analyses. Lead chemistries identified in our in vivo screen have been evaluated in the cockroach and termite assays.

[7] = system: adult male Blatella germanica; assay: Cockroach assay of Table 16 (title contact assay, text feeding assay); type: in vivo; conditions: 200 mM compound
From the text: as §1

[8] = system: adult Reticulitermes flavipes; assay: Termite immersion assay; type: in vivo; conditions: 100 mM compound (Fipronil 500 μM), immersion, adult termite
From the text: A series of whole organism bioassays was developed to further evaluate the toxicity of chemistries to a range of agricultural, veterinary and public health pests and non-target insects (Tables 12 and 13). These assays are designed to rapidly explore the biological activity spectrum of chemistries as well as to facilitate initial investigations of the mode of action of insecticidal compounds. Briefly, assays were developed for the German cockroach (Blatella germanica, urban pest), termite (Reticulitermes flavipes; urban pest), lone star tick (Amblyomma americana; veterinary and public health pest), soybean aphid (Aphis glycines, agricultural pest) and honeybee (Apis mellifera; beneficial, non-target insect). The assays were designed to test the toxicity and speed of kill of multiple chemistries on contact. Each of these assays was performed as a single point dose experiment in triplicate using either topical application of compound to the ventral thorax (1 μl of a […] compound solution in 1:1 v:v DMSO:EtOH vehicle; 50-80 μg effective dose depending on compound) as is the case for our cockroach and honeybee assays, or 10 second immersion in a solution of the compound diluted in water or DMSO:[…] The assays were conducted in 24-well plate format with mortality assessment following incubation at 22° C. as described above. Commercial insecticides were incorporated in these assays to provide a positive control and permit initial comparative analyses. Lead chemistries identified in our in vivo screen have been evaluated in the cockroach and termite assays.

[9] = 0.5 h, read-out: percent mortality 0.5 hr, 400 uM, L3 larvae, value for this scoring time
[10] = 1 h, read-out: percent mortality 1 hr, 400 uM, L3 larvae, per scoring time
[11] = 2 h, read-out: percent mortality 2 hr, 400 uM, L3 larvae, per scoring time
[12] = 3 h, read-out: percent mortality 3 hr, 400 uM, L3 larvae, per scoring time
[13] = 4 h, read-out: percent mortality 4 hr, 400 uM, L3 larvae, per scoring time
[14] = 24 h, read-out: percent mortality 24 hr, 400 uM, L3 larvae, per scoring time
[15] = 48 h, read-out: Toxicity to Aedes aegypti larvae (mortality) 48 hours, 400 μM, L3 larvae, three independent experiments
[16] = 48 h, read-out: percent mortality 48 hr, 400 uM, L3 larvae, per scoring time
[17] = 72 h, read-out: Cumulative % Mortality (72 hrs), 400 uM, L3 larvae
[18] = 72 h, read-out: Toxicity to Aedes aegypti larvae (mortality) 72 hours, 400 μM, L3 larvae, three independent experiments
[19] = 72 h, read-out: percent mortality 72 hr, 400 uM, L3 larvae, per scoring time

T1 sequence (H6D5H2 entry or part of it): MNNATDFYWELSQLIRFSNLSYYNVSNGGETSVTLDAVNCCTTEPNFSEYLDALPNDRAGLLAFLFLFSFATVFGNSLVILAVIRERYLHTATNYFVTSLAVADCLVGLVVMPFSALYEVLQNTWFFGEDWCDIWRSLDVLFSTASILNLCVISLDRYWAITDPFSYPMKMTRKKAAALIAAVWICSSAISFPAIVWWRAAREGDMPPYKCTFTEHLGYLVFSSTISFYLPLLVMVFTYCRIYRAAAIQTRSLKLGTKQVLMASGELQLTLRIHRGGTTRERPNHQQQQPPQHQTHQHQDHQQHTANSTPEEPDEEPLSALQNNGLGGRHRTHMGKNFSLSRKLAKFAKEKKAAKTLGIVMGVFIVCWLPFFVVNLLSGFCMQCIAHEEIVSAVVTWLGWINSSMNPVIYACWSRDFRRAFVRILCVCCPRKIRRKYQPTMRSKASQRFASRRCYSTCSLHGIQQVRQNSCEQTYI

Structure (SMILES): CCCN1CCc2cccc3c2[C@H]1Cc1ccc(O)c(O)c1-3 [R(−)-Propyl-NPA]
- % of DHX (AaDOP2 [1]): 68%

Structure (SMILES): CC[C@@H](CO)NC(=O)[C@@H]1C=C2c3cccc4[nH]cc(c34)C[C@H]2N(C)C1 [Methylergonovine]
- % of DHX (AaDOP2 [1]): 47%

Structure (SMILES): CN(C)CCCN1c2ccccc2CCc2ccccc21 [Imipramine, 3-(10,11-dihydro-5H-dibenzo[b,f]azepin-5-yl)-N,N-dimethylpropan-1-amine]
- mortality at 400 µM (Ae. aegypti L3 larvae [2]; 24 h, read-out: Toxicity to Aedes aegypti larvae (mortality) 24 hours): 53%
- mortality at 400 µM (Ae. aegypti L3 larvae [2]; 48 h, read-out: Toxicity to Aedes aegypti larvae (mortality) 48 hours): 63%
- mortality at 400 µM (Ae. aegypti L3 larvae [2]; 72 h, read-out: Toxicity to Aedes aegypti larvae (mortality) 72 hours): 80%
- IC50 (AaDOP2 [3]): 360 ± 30 nM
- % of the SCH23390 effect (AaDOP2 [4]): 96%
- % inhibition of DA activity (Aedes cell-based assay screen) (AaDOP2 [4]): 96%
- inhibition at 10 µM (Isdop2): 70%

Structure (SMILES): CC1=C[C@@H]2c3cccc4[nH]cc(c34)C[C@H]2N(C)C1 [Agroclavine]
- % of DHX (AaDOP2 [1]): 93%

Structure (SMILES): Br.Oc1ccc(C2CNCc3sccc32)cc1O (centres unmarked) [SKF 89626]
- % of DHX (AaDOP2 [1]): 101%

Structure (SMILES): CN1CCN(C2=Nc3ccccc3Oc3ccc(Cl)cc32)CC1 [Loxapine, 2-Chloro-11-(4-methylpiperazin-1-yl)dibenzo[b,f][1,4]oxazepine]
- mortality at 400 µM (Ae. aegypti L3 larvae [2]; [9]): 30%
- mortality at 400 µM (Ae. aegypti L3 larvae [2]; [10]): 0%
- mortality at 400 µM (Ae. aegypti L3 larvae [2]; [11]): 30%
- mortality at 400 µM (Ae. aegypti L3 larvae [2]; 3 h, read-out: mortality within three hours, 400 μM, L3 larvae): > 70%
- mortality at 400 µM (Ae. aegypti L3 larvae [2]; [12]): 0%
- mortality at 400 µM (Ae. aegypti L3 larvae [2]; [13]): 0%
- mortality at 400 µM (Ae. aegypti L3 larvae [2]; [14]): 0%
- mortality at 400 µM (Ae. aegypti L3 larvae [2]; [15]): 100%
- mortality at 400 µM (Ae. aegypti L3 larvae [2]; [16]): 0%
- mortality at 400 µM (Ae. aegypti L3 larvae [2]; [17]): 100%
- mortality at 400 µM (Ae. aegypti L3 larvae [2]; [18]): 100%
- mortality at 400 µM (Ae. aegypti L3 larvae [2]; [19]): 0%
- % of the SCH23390 effect (AaDOP2 [4]): 97%
- % inhibition of DA activity (Aedes cell-based assay screen) (AaDOP2 [4]): 97%
- inhibition at 10 µM (Isdop2): 93%
- Toxicity to Aedes aegypti larvae (mortality) 24 hours (Ae. aegypti L3 larvae [5]): 97%

Structure (SMILES): CNCCCN1c2ccccc2CCc2ccc(Cl)cc21 [Norclomipramine]
- IC50 (AaDOP2 [3]): 670 ± 35 nM
- Toxicity to Aedes aegypti larvae (mortality) 24 hours (Ae. aegypti L3 larvae [5]): 40%
- Toxicity to Aedes aegypti larvae (mortality) 48 hours (Ae. aegypti L3 larvae [5]): 63%
- Toxicity to Aedes aegypti larvae (mortality) 72 hours (Ae. aegypti L3 larvae [5]): 70%

Structure (SMILES): Nn1nnc2ccccc21 [1-Aminobenzotriazole]
- % of DHX (AaDOP2 [1]): 75%

Structure (SMILES): CCN(c1nc(N)c(C(=O)NC(=N)N)nc1Cl)C(C)C [EIPA]
- % of DHX (AaDOP2 [1]): 73%

Structure (SMILES): COC(=O)N(C(=O)N1CO[C@@]2(C(=O)OC)Cc3cc(Cl)ccc3C2=N1)c1ccc(OC(F)(F)F)cc1 [Indoxacarb]
- % Mortality 24 hrs [6]: 50%
- % Mortality 48 hrs [6]: 50%
- % Mortality 72 hrs [6]: 70%
- % Mortality 120 hrs [6]: 100%
- % Mortality 240 hrs [6]: 100%
- % Mortality 24 hrs [7]: 63%
- % Mortality 48 hrs [7]: 63%
- % Mortality 72 hrs [7]: 80%
- % Mortality 120 hrs [7]: 100%

Structure (SMILES): C=CCN1CCc2c(cc(O)c(O)c2Cl)C(c2ccccc2)C1 (racemic) [(±)-Chloro-APB]
- % of DHX (AaDOP2 [1]): 105%

Structure (SMILES): CN1C2CCC1CC(OC(c1ccccc1)c1ccccc1)C2 (stereo not drawn) [Benztropine, (3-endo)-3-(diphenylmethoxy)-8-methyl-8-azabicyclo[3.2.1]octane]
- mortality at 400 µM (Ae. aegypti L3 larvae [2]; [9]): 0%
- mortality at 400 µM (Ae. aegypti L3 larvae [2]; [10]): 0%
- mortality at 400 µM (Ae. aegypti L3 larvae [2]; [11]): 20%
- mortality at 400 µM (Ae. aegypti L3 larvae [2]; [12]): 0%
- mortality at 400 µM (Ae. aegypti L3 larvae [2]; [13]): 0%
- mortality at 400 µM (Ae. aegypti L3 larvae [2]; [14]): 40%
- mortality at 400 µM (Ae. aegypti L3 larvae [2]; [15]): 100%
- mortality at 400 µM (Ae. aegypti L3 larvae [2]; [16]): 0%
- mortality at 400 µM (Ae. aegypti L3 larvae [2]; [17]): 100%
- mortality at 400 µM (Ae. aegypti L3 larvae [2]; [18]): 100%
- mortality at 400 µM (Ae. aegypti L3 larvae [2]; [19]): 0%
- inhibition at 10 µM (Isdop2): 84%
- Toxicity to Aedes aegypti larvae (mortality) 24 hours (Ae. aegypti L3 larvae [5]): 100%

Structure (SMILES): CCCCCCCC/C=C\CCCCCCCC(=O)NCCc1ccc(O)c(O)c1 [N-Oleoyldopamine]
- % of DHX (AaDOP2 [1]): 38%

Structure (SMILES): N#Cc1nn(-c2c(Cl)cc(C(F)(F)F)cc2Cl)c(N)c1[S+]([O-])C(F)(F)F (centres unmarked) [Fipronil]
- % Mortality 24 hrs [8]: 90%
- % Mortality 48 hrs [8]: 100%
- % Mortality 72 hrs [8]: 100%
- % Mortality 120 hrs [8]: 100%
- % Mortality 240 hrs [8]: 100%
